Data reported in US20230348419A1, “BIAMINOQUINOLINES AND NANOFORMULATIONS FOR CANCER TREATMENT” (The Regents of the University of California, priority 2019, published 2023).
Like-named read-outs stand apart in the source and are kept apart here.

Assays:
[1] = Drug loading using BAQ13 NPs; assay type: physicochemical; conditions: for PDI / Size/diameter: BAQ13 NPs loaded with the drug or dye; for Encapsulation efficiency / Drug-loading content: drug or dye loaded in BAQ13 NPs; for Drug-loading content: mass ratio
Description: (§1) Preparation and characterization of BAQ ONNs. NPs were prepared through the re-precipitation method. BAQ derivatives in methanol were added dropwise into MilliQ water while stirring for 5 min (volume ratio, 1:10), and then homogenous NPs were obtained after rotary evaporation (40° C., 20 min), followed by the characterization with Zetasizer Nano ZS (Malvern). The TEM samples were prepared by dropping 0.5 mM NPs on carbon square mesh and dried naturally, which were then observed under the Talos L120C TEM (FEI) at an accelerating voltage of 80 kV. To determine the drug content in nanoformulations, the prepared drug-loaded NPs were cut off by centrifugal filter (ultracel-10 kDa, Millipore), and the absorbance of filtrate (diluted with DMSO, 1:10, volume ratio) was measured for calculation of drug concentrations.
Next investigation was whether liposome-like BAQ ONNs can encapsulate additional agents. Upon nanoprecipitation of BAQ13 and various agents, homogeneous NPs with monomodal size distributions spontaneously formed (Table 2 and FIG. 9G).

[2] = Nanoparticle characterization of BAQ NPs (DLS, TEM); assay type: physicochemical; conditions: assembled NPs in water; for PDI / Size (nm): DLS
Description: as §1

[3] = system: BXPC-3; assay: MTS cell viability assay; assay type: cell-based, human; conditions: 24 h; read-out: IC50 (μM) in the 24 h treatment BXPC-3
Description: (§2) Cell line and cell culture. The human pancreatic cancer cell lines (MIA PaCa-2, BXPC3, and PANC-1) were originally purchased from ATCC and were kindly provided by Dr. Shiro Urayama's Lab. HT29, HCT116, H460, MCF7, NIH/3T3, and IMR-90 cell lines were purchased from ATCC. Bone marrow cells were collected from the leg bone marrows of FVB/N mice. All the cells were cultured at 37° C. in a humidified atmosphere of 5% CO2/95% air using the corresponding medium supplemented with 10% fetal bovine serum, […] according to ATCC protocol. All the cell lines have been tested for mycoplasma contamination routinely.
(§3) Cell viability, cell growth and colony formation. Cell viability was assessed by the MTS assay. Briefly, cells in 96-well plates (4,000 cell per well) were treated as indicated, followed by the incubation with MTS regents for 4 h. OD values (490 nm) were determined via a microplate reader. Results were shown as the average cell viability calculated from the formula of [(ODtreat−ODblank)/(ODcontrol−ODblank)×100%]. Drug combination data were analyzed by Combenefit 2.02. In cell growth assay, cells in 6-well plates (50,000 cell per well) were treated as indicated and were counted manually every 24 h. Colony formation assay was also performed on 6-well plates with a starting density of 1,000-2,000 cells per well. After incubated as indicated for 10-20 days, cells were washed with PBS and stained with the solution of crystal violet and methanol for 20 min.

[4] = system: PANC-1; assay: MTS cell viability assay; assay type: cell-based, human; conditions: 24 h; read-out: IC50 (μM) in the 24 h treatment PANC-1
Description: as §2, §3

[5] = system: MIA PaCa-2; assay: MTS cell viability assay; assay type: cell-based, human; conditions: read-out: IC50 (μM) in the 24 h treatment MIA PaCa-2
Description: as §2, §3

[6] = system: MCF-7; assay: MTS cell viability assay; assay type: cell-based; conditions: 24 h; read-out: IC50 (μM) in the 24 h treatment MCF-7
Description: as §2, §3

[7] = system: HT29; assay: MTS cell viability assay; assay type: cell-based; conditions: read-out: IC50 (μM) in the 24 h treatment HT29
Description: as §2, §3

[8] = system: H460; assay: MTS cell viability assay; assay type: cell-based; conditions: 24 h; read-out: IC50 (μM) in the 24 h treatment H460
Description: as §2, §3

[9] = system: MIA PaCa-2 cells; assay: RNA sequencing, differentially expressed genes; assay type: cell-based, human; conditions: 5 μM, 24 h, vs vehicle
Description: RNA-seq. Total RNA was extracted by the RNeasy Mini Kit (Qiagen, Germany) from the treated MIA PaCa-2 cells (5 μM, 24 h). Samples were submitted to the UC Davis Comprehensive Cancer Center's Genomics Shared Resource (GSR) for RNA-Seq analysis. Stranded RNA-Seq libraries were prepared from 100 ng total RNA using the NEBNext Ultra Directional RNA Library Prep Kit (New England BioLabs). Subsequently, libraries were combined for multiplex sequencing on an Illumina HiSeq 4000 System (2×150 bp, paired-end, >20×10^6 reads per sample). The data of normalized genes read counts were analyzed using fold change and t test. The Differentially expressed genes (DEGs) were collected for the signaling pathways enrichment by Funrich software 3.1.3. The gene sets were from MSigDB database (Broad Institute). GSEA was performed using GSEA version 3.0 in KEGG gene sets category online, with the following parameters: n=1,000 permutations, where p-adjust <0.05, and FDR <0.05 were considered significant.

[10] = system: three pancreatic cancer cell lines (MIA PaCa-2, BxPC-3, and PANC-1) and two colon cancer cell lines (HT29 and HCT116); assay: 48 h MTS assay on pancreatic and colon cancer cell lines; assay type: cell-based
Description: as §3
In vitro antitumour activity of BAQ derivatives. To systematically investigate the antitumour effects in vitro, three pancreatic cancer cell lines (MIA PaCa-2, BxPC-3, and PANC-1) and two colon cancer cell lines (HT29 and HCT116) were selected for a 48 h MTS assay. […] The improved anticancer activity of BAQ ONNs is attributable to their multiple functions in inducing LMP, lysosomal dysfunction and autophagy inhibition in cancer cells; these effects are considered to be important triggers of apoptosis. To examine the proapoptotic effects of BAQ ONNs, apoptosis signals in MIA PaCa-2 and HT29 cells was subsequently detected. […] Lys05, the control, increased apoptotic signals in a concentration-dependent manner, but its effect at a high concentration close to the IC50 was still milder than those of the low concentrations of BAQ ONNs.

[11] = system: various cancer cell lines; assay: Preliminary MTS screening, 24 h; assay type: cell-based; conditions: 24 h MTS
Description: To verify the therapeutic effects of BAQ12-BAQ18, a preliminary screening was conducted using an MTS assay on various cancer cell lines. […] This decrease was due to gradual declines in the detergence and H^+ buffering capacity of compounds. Based on the results above, BAQ12 and BAQ13 were then selected as representatives for construction of BAQ ONNs in the following studies.
as §3

[12] = system: HT29 tumours; assay: HT29 xenograft model; conditions: mice bearing HT29 tumours
[13] = system: HCT116; assay: MTS cell viability assay; assay type: cell-based; conditions: Homo sapiens, HCT-116, 48 h; read-out: IC50 values from the 48 h MTS assay (μM) HCT116
Description: as §2, §3

[14] = system: Red blood cells; assay: pH-dependent haemolysis test; assay type: cell-based; conditions: whole pH range, same concentration (50 μM, 4 h)
[15] = Titration with hydrochloric acid (pH buffering capacity); assay type: physicochemical; conditions: 1 mM, 0.1 M HCl

CC[C@]1(O)C[C@@H]2CN(CCc3c([nH]c4ccccc34)[C@@](C(=O)OC)(c3cc4c(cc3OC)N(C)[C@H]3[C@@](O)(C(=O)OC)[C@H](OC(C)=O)[C@]5(CC)C=CCN6CC[C@]43[C@@H]65)C2)C1 [Vinblastine]
PDI [1]: 0.133
Size/diameter [1]: 60 nm
Encapsulation efficiency [1]: 95%
Drug-loading content [1]: 50%

CC1(C)CCC2=C(O1)c1ccccc1C(=O)C2=O [β-lapachone]
PDI [1]: 0.047
Size/diameter [1]: 128 nm
Encapsulation efficiency [1]: 95%
Drug-loading content [1]: 33%

COc1ccc(-c2nc(-c3cc(C(F)(F)F)cc(C(F)(F)F)c3)n(Cc3ccc(C(N)=O)cc3)c2-c2ccc(OC)cc2)cc1 [Apoptozole]
PDI [1]: 0.099
Size/diameter [1]: 85 nm
Encapsulation efficiency [1]: 93%
Drug-loading content [1]: 50%

CCCCCCCCCCCCCCN(CCNc1ccnc2cc(Cl)ccc12)CCNc1ccnc2cc(Cl)ccc12 [BAQ14]
Zeta Potential (mV) [2]: 39.1 ± 0.4 mV
PDI [2]: 0.069
Size (nm) [2]: 137.9 ± 4.6 nm
IC50 [3]: 7.5 ± 0.7 µM
IC50 [4]: 10.4 ± 1.8 µM
IC50 ([5]; 24 h): 16 ± 1.8 µM
IC50 [6]: 28.5 ± 3.5 µM
IC50 ([7]; 24 h): 9.6 ± 2 µM
IC50 [8]: 24 ± 0.3 µM

CCCCCCCCCCCCCN(CCNc1ccnc2cc(Cl)ccc12)CCNc1ccnc2cc(Cl)ccc12 [BAQ13]
downregulated genes [9]: 181
upregulated genes [9]: 209
differentially expressed genes (DEGs) ([9]; fold change≥2 and p value≤0.05): 390
Zeta Potential (mV) [2]: 39.7 ± 1.9 mV
PDI [2]: 0.097
Size (nm) [2]: 99.1 ± 2.1 nm
IC50 [3]: 3.1 ± 0.2 µM
IC50 [4]: 4.3 ± 1 µM
IC50 ([5]; 24 h): 4.2 ± 1 µM
effect alone versus combination treatment with Lys05 and MSDH [10]: more effective than combination treatment with Lys05 and MSDH
fold more potent than HCQ [10]: 30 fold
fold higher potency than HCQ [11]: ~20 fold
fold higher potency than Lys05 [11]: ~3 fold
fold higher potency than MSDH [11]: ~10 fold
IC50 [6]: 3.7 ± 0.3 µM
IC50 ([7]; 24 h): 3 ± 1.1 µM
IC50 [8]: 2.2 ± 0.4 µM

CCCCCCCCCCCCN(CCNc1ccnc2cc(Cl)ccc12)CCNc1ccnc2cc(Cl)ccc12 [BAQ12]
Zeta Potential (mV) [2]: 36.4 ± 1.5 mV
PDI [2]: 0.069
Size (nm) [2]: 102.5 ± 3.1 nm
IC50 [3]: 2.9 ± 0.6 µM
IC50 [4]: 4.5 ± 0.9 µM
IC50 ([5]; 24 h): 4.1 ± 0.8 µM
effect alone versus combination treatment with Lys05 and MSDH [10]: more effective than combination treatment with Lys05 and MSDH
fold more potent than HCQ [10]: 30 fold
fold higher potency than HCQ [11]: ~20 fold
fold higher potency than Lys05 [11]: ~3 fold
fold higher potency than MSDH [11]: ~10 fold
IC50 [6]: 3.1 ± 0.1 µM
IC50 ([7]; 24 h): 3.5 ± 1.2 µM
IC50 [8]: 2.7 ± 0.5 µM

CCN(CCO)CCCC(C)Nc1ccnc2cc(Cl)ccc12 (centres unmarked) [HCQ, hydroxychloroquine]
IC50 ([5]; Homo sapiens, MIA PaCa-2, 24 h): 79.6 ± 8.5 µM
IC50 ([7]; Homo sapiens, HT-29, 24 h): > 75 µM

CCCCCCCCCCCCCCCCCCN(CCNc1ccnc2cc(Cl)ccc12)CCNc1ccnc2cc(Cl)ccc12 [BAQ18]
Zeta Potential (mV) [2]: 39.5 ± 0.8 mV
PDI [2]: 0.093
Size (nm) [2]: 96.7 ± 1.6 nm
IC50 [3]: > 90 µM
IC50 [4]: > 90 µM
IC50 ([5]; 24 h): > 90 µM
IC50 [6]: > 90 µM
IC50 ([7]; 24 h): > 100 µM
IC50 [8]: > 90 µM

COc1cc([C@@H]2c3cc4c(cc3[C@@H](O[C@@H]3O[C@@H]5CO[C@@H](C)O[C@H]5[C@H](O)[C@H]3O)[C@H]3COC(=O)[C@H]23)OCO4)cc(OC)c1O [Etoposide]
PDI [1]: 0.104
Size/diameter [1]: 69 nm
Encapsulation efficiency [1]: 86%
Drug-loading content [1]: 50%

CCCCCCCCCCCCCCCCN(CCNc1ccnc2cc(Cl)ccc12)CCNc1ccnc2cc(Cl)ccc12 [BAQ16]
Zeta Potential (mV) [2]: 40.4 ± 0.5 mV
PDI [2]: 0.082
Size (nm) [2]: 119.7 ± 2.1 nm
IC50 [3]: 27.6 ± 2.8 µM
IC50 [4]: > 90 µM
IC50 ([5]; 24 h): 60.7 ± 13.9 µM
IC50 [6]: > 90 µM
IC50 ([7]; 24 h): > 80 µM
IC50 [8]: > 90 µM

CCc1c2c(nc3ccc(OC(=O)N4CCC(N5CCCCC5)CC4)cc13)-c1cc3c(c(=O)n1C2)COC(=O)[C@]3(O)CC [Irinotecan]
Median Survival ([12]; survival analysis in text): 36 days
Median Survival ([12]; treatment terminated on the 24th day): 36 days
IC50 [13]: 17 ± 1 µM

CCCCCCCCCCCCNC(=O)[C@@H](N)COC.Cl [MSDH, O-Methyl-Serine-Dodecylamide Hydrochloride]
IC50 ([5]; Homo sapiens, MIA PaCa-2, 24 h): 55.5 ± 7.1 µM
haemolytic response to pH [14]: only a weak haemolytic response to pH
pH plateau upon titration with HCl [15]: 6.2
IC50 ([7]; Homo sapiens, HT-29, 24 h): 30.3 ± 4.8 µM

CCCCCCCCCCCCCCCN(CCNc1ccnc2cc(Cl)ccc12)CCNc1ccnc2cc(Cl)ccc12 [BAQ15]
Zeta Potential (mV) [2]: 38.0 ± 2.9 mV
PDI [2]: 0.086
Size (nm) [2]: 107.3 ± 2.6 nm
IC50 [3]: 17.2 ± 2 µM
IC50 [4]: 34.5 ± 3.9 µM
IC50 ([5]; 24 h): 42 ± 11.7 µM
IC50 [6]: > 60 µM
IC50 ([7]; 24 h): 16.1 ± 2.5 µM
IC50 [8]: 24.1 ± 0.4 µM

CC(C)C[C@H](NC(=O)[C@H](Cc1ccccc1)NC(=O)c1cnccn1)B(O)O [Bortezomib]
PDI [1]: 0.09
Size/diameter [1]: 92 nm
Encapsulation efficiency [1]: 89%
Drug-loading content [1]: 50%

Nc1cccc2c1CN(C1CCC(=O)NC1=O)C2=O (centres unmarked) [Lenalidomide]
PDI [1]: 0.069
Size/diameter [1]: 85 nm
Encapsulation efficiency [1]: 88%
Drug-loading content [1]: 50%

Cc1sc2c(c1C)C(c1ccc(Cl)cc1)=N[C@@H](CC(=O)OC(C)(C)C)c1nnc(C)n1-2 [JQ1]
PDI [1]: 0.048
Size/diameter [1]: 110 nm
Encapsulation efficiency [1]: 92%
Drug-loading content [1]: 50%
